Measurements taken from patent US8686016B2, “Schweinfurthins and uses thereof” (The United States of America, as represented by the …, priority 2009, dated 2014).
Entries after “also recorded” stand apart in the source; their conditions may differ.

Experiments:
[1] = test system: SF-295 human glioma cells; test: Clonogenic assay, SF-295; type: cell-based; conditions: 18 hrs treatment, colonies after one week
Procedure: Clonogenic Assays: Monolayers of cells were treated for 18 hrs with SA, and then harvested, counted, and seeded to 35 mm dishes at a density of 1000 cells per dish. After one week, macroscopic colonies were stained with crystal violet (Sigma, St. Louis, Mo., USA) and counted.

A549 cells = test: XTT cell proliferation assay, A549; type: cell-based, human; conditions: 48 hours
Procedure: (§1) XTT Cell Proliferation Assay: Cells were seeded into 96-well plates at a density of 2,000 cells/well and allowed to reattach overnight. Cells were treated with SA, synthetic analogs, camptothecin (NCI Chemotherapeutics Repository, Md., USA), or DMSO control at the indicated concentrations continuously for 48 hours followed by assay in the 96-well plate for relative viable cell number using the dye […] (XTT) and a Wallac-Victor 2 plate reader (Perkin-Elmer, Waltham, Mass., USA). Absorbance was determined at 450 nm with 650 nm as a reference reading. Primary astrocytes were additionally assayed at a 96 hour time point.

[2] = test system: primary astrocytes from wt, Nf1−/+, and NPcis mice; test: XTT cell proliferation assay, primary astrocytes; type: cell-based, mouse; conditions: for inhibition of proliferation: XTT
Procedure: as §1
Cell culture: Primary astrocytes were prepared as described previously (Hawes et al., J. Biomol. Screen, 2008, 13:795-803) from 1 day old neonatal brains collected from wt, Nf1−/+, and Nf1−/+; Trp53−/+ cis mice.

MPNST T265 cells = test: XTT cell proliferation assay, T265; type: cell-based, human
Procedure: as §1
Cell lines and culture: Human MPNST cell lines (STS26T and T265) were obtained from the Pediatric Oncology Branch, NCI (Bethesda, Md., USA).

[3] = test system: KR158 cells stably transfected with GFP-actin; test: Cell morphology / actin confocal microscopy, KR158 GFP-actin; type: cell-based, mouse; conditions: 16-18 hrs treatment
Procedure: Doxorubicin studies: KR158 stably transfected with GFP-actin were treated with 25 and 50 μM doxorubicin for 18 hrs continuously.
Cell Morphology Assays and Confocal Microscopy: To assay cytoskeleton morphology, KR158 cells, mouse primary astrocytes, KR158 clones expressing the NF1-GRD constructs, K14553 cells, and A549 were seeded to cover slips and allowed to reattach overnight. Cells were treated for 18 hours with either the indicated concentrations of SA, or the vehicle control DMSO. The cover slips were fixed in 3.7% paraformaldehyde, permeablized in 0.1% Triton-X100, and stained with Alexa Fluor 488-phalloidin (Invitrogen, Carlsbad, Calif., USA) to detect actin and cells were mounted in Prolong Antifade containing DAPI (Invitrogen) to stain nuclei. The cells were imaged on a LSM510 confocal microscope (Carl Zeiss Inc., Jena, Germany). […] KR158 GFP-actin transfected cells were seeded to 8-well chamber slides, allowed to reattach, and then treated with indicated concentrations of SA. Actin structures were monitored continuously over a 16 hr period using confocal microscopy equipped with a growth chamber (37° C., humidified atmosphere and 5% CO2). To compare SA to Rho/Rock inhibitors, KR158 GFP-actin cells were treated with SA or with the Rho pathway inhibitors Rock inhibitor Y-27632 (Sigma, St. Louis, Mo., USA), and the Rho inhibitor C3 transferase (Cytoskeleton, Inc., Denver, Colo., USA, cat# CT04) for 16 hrs, and then examined by confocal microscopy.

[4] = test system: empty vector transduced KR158 cells; test: Cell morphology / actin confocal microscopy, empty vector KR158; type: cell-based, mouse
Procedure: Constructs and Transfections: NF1-GRD retroviral constructs were obtained from Indiana University. Cells transduced with the NF1-GRD construct or PMSCV empty vector control as previously described (Hiatt et al., J. Biol. Chem., 2001, 276:7240-5) were maintained in 1 μg/mL puromycin (Sigma).
(§2) Cell Morphology Assays and Confocal Microscopy: To assay cytoskeleton morphology, KR158 cells, mouse primary astrocytes, KR158 clones expressing the NF1-GRD constructs, K14553 cells, and A549 were seeded to cover slips and allowed to reattach overnight. Cells were treated for 18 hours with either the indicated concentrations of SA, or the vehicle control DMSO. The cover slips were fixed in 3.7% paraformaldehyde, permeablized in 0.1% Triton-X100, and stained with Alexa Fluor 488-phalloidin (Invitrogen, Carlsbad, Calif., USA) to detect actin and cells were mounted in Prolong Antifade containing DAPI (Invitrogen) to stain nuclei. The cells were imaged on a LSM510 confocal microscope (Carl Zeiss Inc., Jena, Germany). For phospho-myosin light chain 2 (MLC) detection, cells were seeded to coverslips as described above. […] Actin structures were monitored continuously over a 16 hr period using confocal microscopy equipped with a growth chamber (37° C., humidified atmosphere and 5% CO2). […]

[5] = test system: MPNST cell lines derived from the NPcis mouse; test: Cell morphology / actin, MPNST cell lines; type: cell-based
Procedure: as §2, with “above. Cells were serum starved in 0.5% FBS and SA or DMSO vehicle control for 18 hours, and then pulsed with 10 ng/mL EGF (Invitrogen) for 5 min.” for “above.”

Rho = Rho GTPase pull-down assay; type: cell-based, mouse; conditions: EGF pulsed KR158 cells, 12 hrs and 18 hrs
Procedure: Rho GTPase Pull-Down Assay: The Rho pull down assay was obtained from Upstate Biolotech/Millipore (Billerica, Mass., USA, Cat#17-294). KR158 cells were harvested at approximately 80% confluency and seeded at 5×10^5 cells per well in a 6-well plate. After overnight recovery, cells were serum starved in 0.5% FBS for 18 hrs. Cells were then treated with 10 ng/mL EGF either in the presence or the absence of the indicted concentrations of SA for up to 18 hours. At the indicated time points, the cells were lysed according to the manufacturer's protocols. Proteins pulled down by the Rho-GTP binding beads were eluted by SDS, fractionated on a 10% SDS-PAGE gel, and transferred to a nitrocellulose membrane. Pre-pull-down lysates were run in parallel to determine total levels of Rho in each sample. The membrane was probed by an anti Rho antibody.

CC(C)=CCC/C(C)=C/Cc1c(O)cc(/C=C/c2cc(O)c3c(c2)C[C@@H]2C(C)(C)[C@H](O)[C@H](O)C[C@@]2(C)O3)cc1O [SA, Schweinfurthin A]
colony growth [1]: inhibited; also recorded: dramatically restricted
inhibition of proliferation (percent viability versus control) (A549 cells): does not inhibit; also recorded: no apparent effect
inhibition of proliferation ([2]; 48 hours): does not inhibit; also recorded: are not; also recorded: resistant
inhibition of proliferation ([2]; 96 hrs continuous treatment): resistant
growth inhibition ([2]; SA concentrations several log-fold higher than the GI50 for KR158): ≤ 40%
inhibition of Nf1 heterozygous cells ([2]; at concentrations of 1 μM): no inhibition
inhibition of proliferation (percent viability versus control) (MPNST T265 cells): potent inhibition of cell proliferation; also recorded: sensitive
F-actin staining / stress fibers [3]: dramatic loss of F-actin staining
F-actin structures [4]: same reorganization of F-actin structures
actin cytoskeleton [5]: loss of stress fibers
Rho activity (Rho): marked inhibition of Rho activity
